The values that follow come from paper PMC6357153 (Viruses, 2019).

Values after ≈ are worked out from the molar mass of the structure shown.

This data set can be described thus: physchem.

In general, solubility refers to the dissolved amount per volume that the medium holds. A high value points to a readily soluble substance. As to `CC[C@H](C)[C@H](NC(=O)[C@H](Cc1ccc(O)cc1)NC(=O)[C@H](CO)NC(=O)[C@H](CC(=O)O)NC(=O)[C@H](CC(N)=O)NC(=O)[C@H](CC(C)C)NC(=O)[C@H](CCC(N)=O)NC(=O)[C@H](CCCCN)NC(=O)[C@@H](NC(=O)[C@@H](NC(=O)[C@H](CCC(=O)O)NC(=O)[C@H](CCC(N)=O)NC(=O)[C@H](CC(C)C)NC(=O)[C@H](CCSC)NC(=O)[C@H](C)NC(=O)[C@H](CCSC)NC(=O)[C@H](CCC(=O)O)NC(=O)[C@H](CC(=O)O)NC(=O)[C@H](CO)NC(=O)[C@H](CC(C)C)NC(=O)[C@H](CC(=O)O)NC(=O)[C@H](CC(C)C)NC(=O)[C@H](CC(C)C)NC(=O)[C@@H](NC(=O)[C@@H](NC(=O)[C@H](CC(N)=O)NC(=O)[C@@H](NC(=O)[C@H](CCCCN)NC(=O)[C@H](CO)NC(=O)[C@@H](NC(=O)[C@H](CCC(=O)O)NC(=O)[C@H](C)NC(=O)[C@H](Cc1ccccc1)NC(=O)[C@H](CC(N)=O)NC(=O)[C@@H]1CCCN1C(=O)CN)[C@@H](C)CC)[C@@H](C)CC)[C@@H](C)O)[C@@H](C)O)C(C)C)C(C)C)C(=O)O` [HKU4-HR2P1], the concentration in solution (pH 7.2, aqueous buffer) (solubility) was 1570 µM (≈ 6340 µg/mL) and the solubility (water) amounted to 651 µM (≈ 2630 µg/mL).

`CC[C@H](C)[C@H](NC(=O)[C@H](Cc1ccc(O)cc1)NC(=O)[C@H](CO)NC(=O)[C@H](CC(=O)O)NC(=O)[C@H](CC(N)=O)NC(=O)[C@H](CC(C)C)NC(=O)[C@H](CCC(N)=O)NC(=O)[C@H](CCCCN)NC(=O)[C@@H](NC(=O)[C@@H](NC(=O)[C@H](CCC(=O)O)NC(=O)[C@H](CCC(N)=O)NC(=O)[C@H](CC(C)C)NC(=O)[C@H](CCSC)NC(=O)[C@H](C)NC(=O)[C@H](CCSC)NC(=O)[C@H](CCC(=O)O)NC(=O)[C@H](CC(=O)O)NC(=O)[C@H](CO)NC(=O)[C@H](CC(C)C)NC(=O)[C@H](CC(=O)O)NC(=O)[C@H](CC(C)C)NC(=O)[C@H](CC(C)C)NC(=O)[C@@H](NC(=O)[C@@H](NC(=O)[C@H](CC(N)=O)NC(=O)[C@@H](NC(=O)[C@H](CCCCN)NC(=O)[C@H](CO)NC(=O)[C@@H](NC(=O)[C@@H](N)CCC(=O)O)[C@@H](C)CC)[C@@H](C)CC)[C@@H](C)O)[C@@H](C)O)C(C)C)C(C)C)C(=O)N[C@@H](CC(=O)O)C(=O)N[C@@H](CC(C)C)C(=O)N[C@@H](CCCCN)C(=O)N[C@@H](CCC(=O)O)C(=O)N[C@@H](CC(C)C)C(=O)O` [HKU4-HR2P2]: the solubility turned out to be 2920 µM (≈ 12100 µg/mL) (pH 7.2, aqueous buffer) and 150 µM (≈ 623 µg/mL) (water).

As to `CC[C@H](C)[C@H](NC(=O)[C@H](Cc1ccc(O)cc1)NC(=O)[C@H](CO)NC(=O)[C@H](CC(=O)O)NC(=O)[C@H](CC(N)=O)NC(=O)[C@H](CC(C)C)NC(=O)[C@H](CCC(N)=O)NC(=O)[C@H](CCCCN)NC(=O)[C@@H](NC(=O)[C@@H](NC(=O)[C@H](CCC(=O)O)NC(=O)[C@H](CCC(N)=O)NC(=O)[C@H](CC(C)C)NC(=O)[C@H](CCSC)NC(=O)[C@H](C)NC(=O)[C@H](CCSC)NC(=O)[C@H](CCC(=O)O)NC(=O)[C@H](CC(=O)O)NC(=O)[C@H](CO)NC(=O)[C@H](CC(C)C)NC(=O)[C@H](CC(=O)O)NC(=O)[C@@H](N)CC(C)C)C(C)C)C(C)C)C(=O)N[C@@H](CC(=O)O)C(=O)N[C@@H](CC(C)C)C(=O)N[C@@H](CCCCN)C(=O)N[C@@H](CCC(=O)O)C(=O)N[C@@H](CC(C)C)C(=O)NCC(=O)N[C@@H](CC(N)=O)C(=O)N[C@@H](Cc1ccc(O)cc1)C(=O)N[C@H](C(=O)N[C@@H](Cc1ccc(O)cc1)C(=O)N[C@@H](Cc1ccc(O)cc1)C(=O)N[C@@H](CC(N)=O)C(=O)N[C@@H](CCCCN)C(=O)N[C@@H](Cc1c[nH]c2ccccc12)C(=O)O)[C@@H](C)O` [HKU4-HR2P3], the solubility is, setting by setting: (pH 7.2, aqueous buffer) 118 µM (≈ 513 µg/mL); (water) 1670 µM (≈ 7270 µg/mL).

As to `CC[C@H](C)[C@H](NC(=O)[C@H](Cc1ccc(O)cc1)NC(=O)[C@H](CO)NC(=O)[C@H](CCC(=O)O)NC(=O)[C@H](CC(N)=O)NC(=O)[C@H](CC(C)C)NC(=O)[C@H](C)NC(=O)[C@H](CCCCN)NC(=O)[C@@H](NC(=O)[C@@H](NC(=O)[C@H](CCC(N)=O)NC(=O)[C@H](CCC(N)=O)NC(=O)[C@H](CC(C)C)NC(=O)[C@H](CO)NC(=O)[C@H](CC(C)C)NC(=O)[C@H](CCSC)NC(=O)[C@H](CCC(=O)O)NC(=O)[C@H](Cc1ccc(O)cc1)NC(=O)[C@@H](NC(=O)[C@H](CC(C)C)NC(=O)[C@H](CC(=O)O)NC(=O)[C@H](CC(C)C)NC(=O)[C@H](CC(C)C)NC(=O)[C@@H](NC(=O)[C@@H](NC(=O)[C@H](CC(N)=O)NC(=O)[C@@H](NC(=O)[C@H](CCC(N)=O)NC(=O)[C@@H](NC(=O)[C@H](CC(C)C)NC(=O)[C@@H](N)CO)[C@@H](C)O)[C@@H](C)CC)[C@@H](C)O)[C@@H](C)O)[C@@H](C)O)C(C)C)C(C)C)C(=O)N[C@@H](CC(=O)O)C(=O)N[C@@H](CC(C)C)C(=O)N[C@@H](CCCCN)C(=O)N[C@@H](CCC(=O)O)C(=O)N[C@@H](CC(C)C)C(=O)O` [MERS-HR2P, reference compound], the solubility (pH 7.2, aqueous buffer) worked out at 105 µM (≈ 435 µg/mL) and the solubility (water) came out at 29 µM (≈ 120 µg/mL).
